Source: patent publication US8202885B2, “Bridged six-membered ring compounds” (Actelion Pharmaceuticals Ltd., priority 2007, dated 2012)

System: human Cav3.1 Cav3.2 or Cav3.3 channel
Experiment: In vitro assay T channel (FLIPR calcium fluorescence)
Type: cell-based
Conditions: HEK293 cells expressing human Cav3.1, Cav3.2 or Cav3.3; 10 mM Ca2+-induced fluo-4 fluorescence; determined up to 10 μM; read-out: T channel antagonistic activity IC50
Procedure, shortened: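 HEK293 cells stably expressing human Cav3.1, Cav3.2 or Cav3.3 loaded with fluo-4 AM (3 μM), preincubated 3 min with antagonist, then stimulated with 10 mM Ca2+ in TEA-chloride/HEPES buffer pH 7.2. FLIPR fluorescence read every 2 s for 8 min; IC50 from peak area versus vehicle, tested up to 10 μM.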

| IC50 [nM] | SMILES |
| --- | --- |
| 778 | COc1ccc(OC)c2[nH]c(CCCN(C)CCC3(OC(=O)C(C)C)CC4CCC3C=C4c3ccccc3)nc12 [Example 67A, Isobutyric acid (1R,2R,4R)-2-(2-{[3-(4,7-dimethoxy-1H-benzoimidazol-2-yl)-propyl]-methyl-amino}-ethyl)-5-phenyl-bicyclo[2.2.2]oct-5-en-2-yl ester or Isobutyric acid (1S,2S,4S)-2-(2-{[3-(4,7-dimethoxy-1H-benzoimidazol-2-yl)-propyl]-methyl-amino}-ethyl)-5-phenyl-bicyclo[2.2.2]oct-5-en-2-yl ester] |
| 2090 | COc1cccc2[nH]c(CCCN(C)CC[C@]3(OC(=O)C(C)C)C[C@H]4CC[C@@H]3C=C4c3ccccc3)nc12 (relative stereo) [Example 26A, rac-Isobutyric acid (1R*,2R*,4R*)-2-(2-{[3-(4-methoxy-1H-benzoimidazol-2-yl)-propyl]-methyl-amino}-ethyl)-5-phenyl-bicyclo[2.2.2]oct-5-en-2-yl ester] |
| 3470 | CN(CCCc1nc2ccccc2[nH]1)CC[C@]1(O)C[C@H]2CC[C@@H]1C=C2c1cccs1 (relative stereo) [Example 21, rac-(1R*,2R*,4R*)-2-(2-{[3-(1H-Benzoimidazol-2-yl)-propyl]-methyl-amino}-ethyl)-5-thiophen-2-yl-bicyclo[2.2.2]oct-5-en-2-ol] |
| > 10000 | CN(CCCc1ccccc1)CC[C@]1(O)C[C@H]2CC[C@@H]1C=C2c1ccccc1 (relative stereo) [Example 15, rac-(1R*,2R*,4R*)-2-{2-[Methyl-(3-phenyl-propyl)-amino]-ethyl}-5-phenyl-bicyclo[2.2.2]oct-5-en-2-ol] |
| 762 | COc1ccc(Cl)c2[nH]c(CCCN(C)CC[C@]3(OC(=O)C(C)C)C[C@H]4CC[C@@H]3C=C4c3ccccc3)nc12 (relative stereo) [Example 58A, rac-Isobutyric acid (1R*,2R*,4R*)-2-(2-{[3-(7-chloro-4-methoxy-1H-benzoimidazol-2-yl)-propyl]-methyl-amino}-ethyl)-5-phenyl-bicyclo[2.2.2]oct-5-en-2-yl ester] |
| > 10000 | CN(CCCc1nc2ccccc2[nH]1)CCC1(O)CC2CCC1C=C2c1ccccc1 (single isomer, unassigned) [Example 11, (1R,2R,4R)-2-(2-{[3-(1H-Benzoimidazol-2-yl)-propyl]-methyl-amino}-ethyl)-5-phenyl-bicyclo[2.2.2]oct-5-en-2-ol or (1S,2S,4S)-2-(2-{[3-(1H-benzoimidazol-2-yl)-propyl]-methyl-amino}-ethyl)-5-phenyl-bicyclo[2.2.2]oct-5-en-2-ol] |
| 1980 | CC(C)C(=O)O[C@@]1(CCN(C)CCCc2nc3c(Cl)cccc3[nH]2)C[C@H]2CC[C@@H]1C=C2c1ccccc1 (relative stereo) [Example 57A, rac-Isobutyric acid (1R*,2R*,4R*)-2-(2-{[3-(4-chloro-1H-benzoimidazol-2-yl)-propyl]-methyl-amino}-ethyl)-5-phenyl-bicyclo[2.2.2]oct-5-en-2-yl ester] |
| 550 | CC1=C(c2ccccc2)[C@H]2CC[C@@H]1C[C@@]2(CCN(C)CCCc1nc2ccccc2[nH]1)OC(=O)C(C)C (relative stereo) [Example 17C, rac-Isobutyric acid (1R*,2S*,4R*)-2-(2-{[3-(1H-benzoimidazol-2-yl)-propyl]-methyl-amino}-ethyl)-5-methyl-6-phenyl-bicyclo[2.2.2]oct-5-en-2-yl ester] |
| 8500 | CC(C)C(=O)O[C@@]1(CCN(C)CCCc2cnc3ccccc3c2)C[C@H]2CC[C@@H]1C=C2c1ccccc1 (relative stereo) [Example 49A, rac-Isobutyric acid (1R*,2R*,4R*)-2-{2-[methyl-(3-quinolin-3-yl-propyl)-amino]-ethyl}-5-phenyl-bicyclo[2.2.2]oct-5-en-2-yl ester] |
